Results published in the CheMixHub ionic liquid set.

Assay: xn = mol fraction of the nth substance listed

O=S=O + OCCO + C[P+](c1ccccc1)(c1ccccc1)c1ccccc1.[Br-]
100 kPa
Details	viscosity [mPa·s]
303.15 K, x1 = 0.02458, x2 = 0.9516	18.4
313.15 K, x1 = 0.01623, x2 = 0.9598	14
323.15 K, x1 = 0.01303, x2 = 0.9629	10.1
333.15 K, x1 = 0.01147, x2 = 0.9644	7.5
343.15 K, x1 = 0.009705, x2 = 0.9661	6

CC[n+]1ccn(C)c1.N#C[S-] + CC1COC(=O)O1
101.3 kPa
Details	electrical conductivity [S/m]	viscosity [mPa·s]
293.15 K, x1 = 0.2045	2.09	5.834
293.15 K, x1 = 0.2984	2.24	7.631
298.15 K, x1 = 0.0989	1.68	3.689
298.15 K, x1 = 0.4	2.36	8.466
298.15 K, x1 = 0.599	2.15	12.93
298.15 K, x1 = 0.7045	2.06	15.47
313.15 K, x1 = 0.7045	2.76	10.1
318.15 K, x1 = 0.2045	3.18	2.991
318.15 K, x1 = 0.2984	3.43	3.817
318.15 K, x1 = 0.599	3.12	7.316
318.15 K, x1 = 0.7045	3.02	8.83
318.15 K, x1 = 0.8942	2.77	11.64
323.15 K, x1 = 0.2045	3.45	2.665
323.15 K, x1 = 0.499	3.49	5.278
323.15 K, x1 = 0.599	3.4	6.4
328.15 K, x1 = 0.499	3.77	4.608
328.15 K, x1 = 0.599	3.68	5.614
328.15 K, x1 = 0.796	3.45	7.7
328.15 K, x1 = 0.8942	3.31	8.9
333.15 K, x1 = 0.0989	3.33	1.702
338.15 K, x1 = 0.0989	3.601	–
338.18 K, x1 = 0.2984	–	2.283
343.15 K, x1 = 0.4	4.79	2.568
343.15 K, x1 = 0.499	4.66	3.183
343.15 K, x1 = 1	4.01	7.236
